Measured values: PubChem BioAssay (NCI)
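1) Cells in 96-well plates. 2) Compound, 48 h, 5 concentrations. 3) Linear interpolation between surrounding doses. 4) Unreached endpoint = highest concentration. TGI denotes the concentration required for complete inhibition of growth.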

Tests used:
Test in all cases: NCI-60 cell line screen, 48 h
PC-3 prostate = tested on: PC-3 prostate
TK-10 renal = tested on: TK-10 renal
HCT-116 colon = tested on: HCT-116 colon
HCT-15 colon = tested on: HCT-15 colon
UACC-62 melanoma = tested on: UACC-62 melanoma
SK-MEL-28 melanoma = tested on: SK-MEL-28 melanoma
DU-145 prostate = tested on: DU-145 prostate
SK-MEL-5 melanoma = tested on: SK-MEL-5 melanoma
SN12C renal = tested on: SN12C renal
ACHN renal = tested on: ACHN renal

| Structure (SMILES) | TGI (PC-3 prostate) | TGI (TK-10 renal) | TGI (HCT-116 colon) | TGI (HCT-15 colon) | TGI (UACC-62 melanoma) | TGI (SK-MEL-28 melanoma) | TGI (DU-145 prostate) | TGI (SK-MEL-5 melanoma) | TGI (SN12C renal) | TGI (ACHN renal) |
| --- | --- | --- | --- | --- | --- | --- | --- | --- | --- | --- |
| N=C(N)c1ccc(-c2ccc(-c3ccc(C(=N)N)cc3)o2)cc1 | > 100 µM | 63 µM | > 100 µM | > 100 µM | > 100 µM | 71.7 µM | > 100 µM | 33 µM | 57.3 µM | > 100 µM |
| Clc1ccc(CSCc2ccc(Cl)cc2Cl)c(Cl)c1 | > 100 µM | > 100 µM | > 100 µM | > 100 µM | > 100 µM | > 100 µM | > 100 µM | 97.9 µM | > 100 µM | > 100 µM |
| CCNC(=O)Cc1nc2c(=O)[nH]cnc2n1C1OC(CO)C(O)C1O (stereo not given) | > 100 µM | > 100 µM | > 100 µM | > 100 µM | > 100 µM | > 100 µM | > 100 µM | > 100 µM | > 100 µM | > 100 µM |
| CC(C)[C@H](NC(=O)[C@@H](O)[C@H](N)Cc1ccccc1)C(=O)N[C@@H](Cc1ccccc1)C(=O)O | > 100 µM | > 100 µM | > 100 µM | > 100 µM | > 100 µM | > 100 µM | > 100 µM | > 100 µM | > 100 µM | > 100 µM |
| CCC(C)(C)c1ccc(Oc2cccc(C(=O)O)c2)cc1 | > 100 µM | > 100 µM | > 100 µM | > 100 µM | > 100 µM | > 100 µM | > 100 µM | > 100 µM | > 100 µM | > 100 µM |
| Oc1ccc2c3c1OC1c4[nH]c5c(c4CC4(O)C(C2)N(CC2CC2)CC[C@]314)CC1(O)C2Cc3ccc(O)c4c3[C@@]1(CCN2CC1CC1)C5O4 (stereo not given in full) | > 100 µM | 44.6 µM | 33 µM | > 100 µM | 43.7 µM | 41.4 µM | > 100 µM | > 100 µM | > 100 µM | > 100 µM |
| Cc1ccc(S(=O)(=O)N/N=C2/CC[C@H](C(C)(C)C)C[C@@H]2C)cc1 | 36.8 µM | 30.4 µM | 29.3 µM | 32.7 µM | 31.4 µM | 32.8 µM | 30.3 µM | 26.8 µM | 30.4 µM | 30.3 µM |
| COc1ccc(N2C(=O)CC(c3c[nH]c4ccccc34)C2=O)cc1 (stereo not given) | > 100 µM | > 100 µM | > 100 µM | > 100 µM | > 100 µM | > 100 µM | > 100 µM | > 100 µM | > 100 µM | > 100 µM |
| CCOC(=O)C1C(=O)CC(C)(O)C(C(=O)OCC)C1c1ccc(OC)cc1 (stereo not given) | > 100 µM | > 100 µM | > 100 µM | > 100 µM | > 100 µM | > 100 µM | > 100 µM | > 100 µM | > 100 µM | > 100 µM |
| CC[C@@H]1C[C@@H](O)[C@@H]2[C@H](O)[C@H](O)CN2C1 | > 100 µM | > 100 µM | > 100 µM | > 100 µM | > 100 µM | > 100 µM | > 100 µM | > 100 µM | > 100 µM | > 100 µM |
| Cc1ccc2nc(Cl)c(/C=N/N3C(=O)/C(=C/Cc4ccco4)N=C3c3ccccc3)cc2c1 | > 100 µM | 55.5 µM | 39.3 µM | > 97.1 µM | > 100 µM | > 100 µM | > 79.5 µM | > 100 µM | > 69.6 µM | > 100 µM |
| CC(C)=CCC/C(C)=C/CC/C(C)=C/CC/C(C=O)=C/CC/C(C)=C\CC/C(C)=C/CC/C(C)=C/CC/C(C)=C/CC1=CC(=O)C=CC1=O | > 100 µM | > 100 µM | > 100 µM | > 100 µM | 53.1 µM | > 100 µM | > 100 µM | > 100 µM | > 100 µM | > 100 µM |
| N#C/C(N)=C(\C#N)N=CNc1ccccc1N | > 100 µM | > 100 µM | > 100 µM | > 100 µM | > 100 µM | > 100 µM | > 100 µM | > 100 µM | > 100 µM | > 100 µM |
| C(=N/Nc1ccccn1)/c1cccnc1 | > 100 µM | > 100 µM | > 100 µM | > 100 µM | > 100 µM | > 100 µM | > 100 µM | > 100 µM | > 100 µM | > 100 µM |
| CO[C@H]1C[C@H](O[C@H]2CC[C@]3(C=O)[C@H]4CC[C@]5(C)[C@@H](C6=CC(=O)OC6)CC[C@]5(O)[C@@H]4CC[C@]3(O)C2)O[C@H](C)[C@H]1O[C@@H]1O[C@H](CO[C@@H]2O[C@H](CO)[C@@H](O)[C@H](O)[C@H]2O)[C@@H](O)[C@H](O)[C@H]1O | 0.33 µM | 0.133 µM | 0.0911 µM | 0.144 µM | 0.467 µM | 1.15 µM | 0.0413 µM | 0.124 µM | 0.11 µM | 0.135 µM |
| O=C(NO)c1ccc(OCc2ccccc2)cc1 | > 100 µM | > 100 µM | 27.4 µM | 45 µM | 36.5 µM | > 100 µM | 68.9 µM | > 100 µM | > 100 µM | 88.8 µM |
| O=C(O)C1CCCN1Cc1ccc2c(c1)OCO2 (stereo not given) | > 100 µM | > 100 µM | > 100 µM | > 100 µM | > 100 µM | > 100 µM | > 100 µM | > 100 µM | > 100 µM | > 100 µM |
| CC(C)(C)C1=NN=C2c3ccccc3C(=O)C21 (stereo not given) | > 100 µM | > 100 µM | > 100 µM | > 100 µM | > 100 µM | > 100 µM | > 100 µM | 54.3 µM | > 100 µM | > 100 µM |
| Cc1ccc2cccc(OC(=O)c3cc4c(cc3Cl)Sc3nccn3S4(=O)=O)c2n1 | 14.7 µM | 30.9 µM | 18.9 µM | 29 µM | 32.6 µM | 30.8 µM | 18.1 µM | 27 µM | > 100 µM | 38.7 µM |
